According to PubChem BioAssay AID1963958 (Molecular Pharmacology Branch, DTP, NCI, 2024):

Tested on: MDA-MB-231 multicell spheroids, viability
Experiment: Anticancer human tumor MDA-MB-231 cell line growth inhibition [PI3K];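 also: spheroids exposed to agents for seven days before reading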;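 as to viability, T/C: percent of vehicle control luminescence with DMSO treated spheroids as 100%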
Details: for IC50: curve of first compound; for viability, T/C: stronger effect = lower value
Method in brief: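 Combination activity was assessed by viability in multicellular tumor spheroids carrying HUVEC and MSC components. Agents were tested with PI3K inhibitors from a Cmax-based top dose (or 10 microM) downward in half-log increments.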

[1] = second compound 0.00316 µM, first compound 0.0316 µM
[2] = second compound 0.00316 µM, first compound 0.1 µM
[3] = second compound 0.00316 µM, first compound 0.316 µM
[4] = second compound 0.00316 µM, first compound 1 µM
[5] = second compound 0.00316 µM, first compound 3.16 µM
[6] = second compound 0.00316 µM, first compound 10 µM
[7] = second compound 0.01 µM, first compound 0.0316 µM
[8] = second compound 0.01 µM, first compound 0.1 µM
[9] = second compound 0.01 µM, first compound 0.316 µM
[10] = second compound 0.01 µM, first compound 1 µM
[11] = second compound 0.01 µM, first compound 3.16 µM
[12] = second compound 0.01 µM, first compound 10 µM
[13] = second compound 0.0316 µM, first compound 0.0316 µM
[14] = second compound 0.0316 µM, first compound 0.1 µM
[15] = second compound 0.0316 µM, first compound 0.316 µM
[16] = second compound 0.0316 µM, first compound 1 µM
[17] = second compound 0.0316 µM, first compound 3.16 µM
[18] = second compound 0.0316 µM, first compound 10 µM
[19] = second compound 0.1 µM, first compound 0.0316 µM
[20] = second compound 0.1 µM, first compound 0.1 µM
[21] = second compound 0.1 µM, first compound 0.316 µM
[22] = second compound 0.1 µM, first compound 1 µM
[23] = second compound 0.1 µM, first compound 3.16 µM
[24] = second compound 0.1 µM, first compound 10 µM
[25] = second compound 0.316 µM, first compound 0.0316 µM
[26] = second compound 0.316 µM, first compound 0.1 µM
[27] = second compound 0.316 µM, first compound 0.316 µM
[28] = second compound 0.316 µM, first compound 1 µM
[29] = second compound 0.316 µM, first compound 3.16 µM
[30] = second compound 0.316 µM, first compound 10 µM
[31] = second compound 1 µM, first compound 0.0316 µM
[32] = second compound 1 µM, first compound 0.1 µM
[33] = second compound 1 µM, first compound 0.316 µM
[34] = second compound 1 µM, first compound 1 µM
[35] = second compound 1 µM, first compound 3.16 µM
[36] = second compound 1 µM, first compound 10 µM

Compound C#Cc1c(F)ccc2cc(O)cc(-c3ncc4c(N5CC6CCC(C5)N6)nc(OCC56CCCN5CC(F)C6)nc4c3F)c12 (stereo unspecified) + COc1c(OCCCN2CCOCC2)ccc2c3n(c(=NC(=O)c4cnc(N)nc4)nc12)CCN3 has an IC50 (second compound 0.00316 µM) greater than 10 µM, an IC50 (second compound 0.01 µM) of 8.6 µM and an IC50 (second compound 0.0316 µM) of 2.02 µM. It also gave an IC50 (second compound 0.1 µM) of less than 0.0316 µM, an IC50 (second compound 0.316 µM) of less than 0.0316 µM and an IC50 (second compound 1 µM) of less than 0.0316 µM. The viability, T/C [1] was 96%, the viability, T/C [2] was 101% and the viability, T/C [3] was 81.7%. The viability, T/C [4] was 88.4%, the viability, T/C [5] was 78.4% and the viability, T/C [6] was 52.7%. The viability, T/C [7] was 77.9%, the viability, T/C [8] was 77.8% and the viability, T/C [9] was 72.9%. For the same compound, the viability, T/C [10] was 74.2%, the viability, T/C [11] was 66.3% and the viability, T/C [12] was 47.5%. It also gave a viability, T/C [13] of 60.6%, a viability, T/C [14] of 56.3% and a viability, T/C [15] of 60.5%. The viability, T/C [16] was 54.6%, the viability, T/C [17] was 45.7% and the viability, T/C [18] was 35%. It also gave a viability, T/C [19] of 47%, a viability, T/C [20] of 46.7% and a viability, T/C [21] of 46.9%. The viability, T/C [22] was 40.8%, the viability, T/C [23] was 33% and the viability, T/C [24] was 21.5%. For the same compound, the viability, T/C [25] was 32.2%, the viability, T/C [26] was 31.5% and the viability, T/C [27] was 26.4%. For the same compound, the viability, T/C [28] was 23.4%, the viability, T/C [29] was 18.1% and the viability, T/C [30] was 13.3%. It also gave a viability, T/C [31] of 24.8%, a viability, T/C [32] of 23.1% and a viability, T/C [33] of 20.2%. For the same compound, the viability, T/C [34] was 16.8%, the viability, T/C [35] was 15.1% and the viability, T/C [36] was 10.4%.

For CC1(C)CCC(Nc2ncc(C(F)(F)F)c(-c3c[nH]c4c(P(C)(C)=O)c(C#N)ccc34)n2)CN1 (stereo unspecified) + COc1c(OCCCN2CCOCC2)ccc2c3n(c(=NC(=O)c4cnc(N)nc4)nc12)CCN3, the IC50 (second compound 0.00316 µM) was 3.28 µM, the IC50 (second compound 0.01 µM) was less than 0.0316 µM and the IC50 (second compound 0.0316 µM) was less than 0.0316 µM. It also gave an IC50 (second compound 0.1 µM) of less than 0.0316 µM, an IC50 (second compound 0.316 µM) of less than 0.0316 µM and an IC50 (second compound 1 µM) of less than 0.0316 µM. The viability, T/C [1] was 52.3%, the viability, T/C [2] was 45% and the viability, T/C [3] was 49.5%. For the same compound, the viability, T/C [4] was 55%, the viability, T/C [5] was 55.7% and the viability, T/C [6] was 4.47%. For the same compound, the viability, T/C [7] was 48.4%, the viability, T/C [8] was 43.3% and the viability, T/C [9] was 45.8%. It also gave a viability, T/C [10] of 50.7%, a viability, T/C [11] of 45.2% and a viability, T/C [12] of 3.69%. It also gave a viability, T/C [13] of 42.3%, a viability, T/C [14] of 43.2% and a viability, T/C [15] of 38.2%. It also gave a viability, T/C [16] of 41.5%, a viability, T/C [17] of 38.8% and a viability, T/C [18] of 3.49%. The viability, T/C [19] was 35.4%, the viability, T/C [20] was 31.1% and the viability, T/C [21] was 31.5%. For the same compound, the viability, T/C [22] was 30.6%, the viability, T/C [23] was 30.7% and the viability, T/C [24] was 3.64%. For the same compound, the viability, T/C [25] was 24.9%, the viability, T/C [26] was 23.2% and the viability, T/C [27] was 23.9%. The viability, T/C [28] was 24.6%, the viability, T/C [29] was 24.8% and the viability, T/C [30] was 2.87%. It also gave a viability, T/C [31] of 21.9%, a viability, T/C [32] of 20.9% and a viability, T/C [33] of 20.7%. It also gave a viability, T/C [34] of 22%, a viability, T/C [35] of 21.9% and a viability, T/C [36] of 2.6%.

Cn1cnc2c(F)c(Nc3ccc(Br)cc3Cl)c(C(=O)NOCCO)cc21 + Cc1nc(NC(=O)N2CCCC2C(N)=O)sc1-c1ccnc(C(C)(C)C(F)(F)F)c1 showed an IC50 (second compound 0.0316 µM) of 0.273 µM, an IC50 (second compound 0.1 µM) of 0.0611 µM and an IC50 (second compound 0.316 µM) of less than 0.00949 µM. For the same compound, the IC50 (second compound 1 µM) was less than 0.00949 µM, the IC50 (second compound 3.16 µM) was less than 0.00949 µM and the IC50 (second compound 10 µM) was less than 0.00949 µM. It also gave a viability, T/C (second compound 0.0316 µM, first compound 0.00949 µM) of 63.2%, a viability, T/C (second compound 0.0316 µM, first compound 0.03 µM) of 55.5% and a viability, T/C (second compound 0.0316 µM, first compound 0.0949 µM) of 56.7%. For the same compound, the viability, T/C (second compound 0.0316 µM, first compound 0.3 µM) was 47.1%, the viability, T/C (second compound 0.0316 µM, first compound 0.949 µM) was 45.2% and the viability, T/C (second compound 0.0316 µM, first compound 3 µM) was 29.5%. It also gave a viability, T/C (second compound 0.1 µM, first compound 0.00949 µM) of 58.1%, a viability, T/C (second compound 0.1 µM, first compound 0.03 µM) of 51.1% and a viability, T/C (second compound 0.1 µM, first compound 0.0949 µM) of 47.8%. It also gave a viability, T/C (second compound 0.1 µM, first compound 0.3 µM) of 41.4%, a viability, T/C (second compound 0.1 µM, first compound 0.949 µM) of 40% and a viability, T/C (second compound 0.1 µM, first compound 3 µM) of 26.1%. It also gave a viability, T/C (second compound 0.316 µM, first compound 0.00949 µM) of 50.4%, a viability, T/C (second compound 0.316 µM, first compound 0.03 µM) of 43.2% and a viability, T/C (second compound 0.316 µM, first compound 0.0949 µM) of 48.1%. The viability, T/C (second compound 0.316 µM, first compound 0.3 µM) was 40.6%, the viability, T/C (second compound 0.316 µM, first compound 0.949 µM) was 34.3% and the viability, T/C (second compound 0.316 µM, first compound 3 µM) was 22.1%. It also gave a viability, T/C (second compound 1 µM, first compound 0.00949 µM) of 44.4%, a viability, T/C (second compound 1 µM, first compound 0.03 µM) of 37.8% and a viability, T/C (second compound 1 µM, first compound 0.0949 µM) of 38.7%. The viability, T/C (second compound 1 µM, first compound 0.3 µM) was 37.4%, the viability, T/C (second compound 1 µM, first compound 0.949 µM) was 33% and the viability, T/C (second compound 1 µM, first compound 3 µM) was 12.6%. For the same compound, the viability, T/C (second compound 3.16 µM, first compound 0.00949 µM) was 48.4%, the viability, T/C (second compound 3.16 µM, first compound 0.03 µM) was 37.1% and the viability, T/C (second compound 3.16 µM, first compound 0.0949 µM) was 36.2%. The viability, T/C (second compound 3.16 µM, first compound 0.3 µM) was 36.1%, the viability, T/C (second compound 3.16 µM, first compound 0.949 µM) was 30.2% and the viability, T/C (second compound 3.16 µM, first compound 3 µM) was 9.65%. It also gave a viability, T/C (second compound 10 µM, first compound 0.00949 µM) of 39.2%, a viability, T/C (second compound 10 µM, first compound 0.03 µM) of 32.7% and a viability, T/C (second compound 10 µM, first compound 0.0949 µM) of 31.6%. For the same compound, the viability, T/C (second compound 10 µM, first compound 0.3 µM) was 24.7%, the viability, T/C (second compound 10 µM, first compound 0.949 µM) was 17.9% and the viability, T/C (second compound 10 µM, first compound 3 µM) was 4.43%.
